Data on three compounds can be found in US12508300B2, “Acylated GLP-1 derivative” (Sciwind Biosciences Co., Ltd., priority 2019, dated 2025).

Data set [1] concerns RIN-m5F cells. The data set is described as follows: In vitro activity determination in RIN-m5F cells (cAMP assay kit). In kind it is cell-based. Here is the method:
RIN-m5F cells with good culturing status are selected. Cells are then collected, counted, and prepared into a cell suspension of 1×10^5 cells/ml with RPMI1640 basal medium. The cell suspension is inoculated in a 96-well cell culture plate, 100 μl per well, then incubating overnight at 37° C. and 5% CO2.
The prepared cell plate is taken out, then discarding the medium, and blotting it dry on the filter paper. The sample solutions are transferred correspondingly into the cell plate, 40 μl/well; treating with the lid open for 15 min at 37° C. and 5% CO2. The cell culture plate is taken out from the incubator, then adding 10 μl of CD solution (cAMP assay kit, Promega) to each well, keeping the cell plate at 22-25° C., and shaking horizontally at 500 rpm for 20 min. 50 μl of KG solution (cAMP assay kit, Promega) is added to each well, then shaking horizontally at 22° C.-25° C., 500 rpm and avoiding light for 10 min. The chemiluminescence value is read by using the Molecular Devices SpectraMax L chemiluminescence apparatus, completing the measurement in 30 min. EC50 of a sample is calculated by using the four-parameter regression in softmax Pro software.

Data set [2] concerns CD-1 mice. In kind it is in vivo. The settings on record: 0.15 mg/kg s.c.; for Inhibition rate (blood glucose): Table 5 (second experiment), CD-1 mice; for glucose-lowing effects (comparison in words, Tables 4 and 5): normal mice. How it is done:
Twenty-eight healthy female CD-1 mice aged 4-6 weeks are selected and divided into 4 groups, and they are injected subcutaneously with M4, M5, M7 and M0 at a dose of 0.15 mg/kg body weight.

The subject of data set [3] is ICR mice. In kind it is in vivo. The arrangement: G-AUC: unit not given here. Here is the method: 20% glucose is intragastrically administered every day according to the time schedule of 4 h, 1 d, 2 d, 3 d, 4 d, and 5 d, at a dose of 2 g/kg body weight, and fasting for 6 hours before administering the glucose; and blood is respectively collected from the tip of the tail at 0 h, 0.5 h, 1 h and 2 h after giving the 20% glucose, then measuring the blood glucose value in real time by using Roche blood glucose test paper.

For data set [4], the target named is T1, trypsin (Bos taurus, UniProt P00760).
T1 construct: purchased Sigma T8003
T1 sequence (P00760 24-246): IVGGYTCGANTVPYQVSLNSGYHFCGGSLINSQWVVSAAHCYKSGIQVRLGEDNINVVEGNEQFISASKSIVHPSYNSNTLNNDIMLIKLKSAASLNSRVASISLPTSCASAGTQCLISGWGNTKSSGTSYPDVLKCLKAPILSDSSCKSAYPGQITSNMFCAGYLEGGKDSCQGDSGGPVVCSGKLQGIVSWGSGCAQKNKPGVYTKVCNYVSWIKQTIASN
The data set is described as follows: Trypsin degradation experiments. In kind it is in vitro ADME. How it is done:
Pepsin (3200-4500 U/mg protein, from Sigma, catalog number: P6887), trypsin (approximately […] protein, from Sigma, catalog number: T8003).
B: Reaction buffer of trypsin: three 20 mM citric acid-phosphate buffers with different pH (4.0, 6.8, and 8.0) are prepared, then adding 0.005% Tween 20 and 0.001% BSA to prepare a reaction buffer of trypsin.
D: Simulated intestinal fluid containing trypsin (SIF): obtained by taking 0.0684 g of potassium dihydrogen phosphate, adding 2.5 ml of water to dissolve it, adding 0.77 ml of 0.2M sodium hydroxide solution and 5 ml of water, and then adding and dissolving 0.1001 g of trypsin; the pH is measured as 6.82, then diluting by adding water to 10 ml.
An appropriate amount of the stock solution of the test sample is taken respectively, then diluting it to 0.06 mg/ml with reaction buffers of trypsin with different pH; each group of reaction solution is divided into 1 ml/tube, a total of 7 tubes, then mixing well and incubating in a 37° C. water bath for 30 min. […]
HPLC assay is performed with samples from the enzyme degradation experiment. The peak area of the main peak of the sample without enzyme reaction at 0 point (recorded as −5 min) is used as the basal peak area, and the remaining percentage of the peak area of the main peak at different time points after enzyme addition is calculated.

Like-named read-outs stand apart in the source and are kept apart here. *1 amine or outer side, *2 acyl side, *3 side chain or, on linkers, in order; H or OH if unused. Where no end group is shown, it is not given here. Side-chain parts run from the residue outwards. The star is where a group is joined. C18 diacid = O=C(O)CCCCCCCCCCCCCCCCC(=O)*; γGlu = O=C(O)[C@H](CCC(=O)[*:2])N[*:1]; AEEA = NCCOCCOCC(=O)O

“N-ε^34-[2-(2-[2-(2-[2-(2-[4-(17-carboxyheptadecanoylamino)-4(s)-carboxybutyrylamino]ethoxy)ethoxy]acetylamino)ethoxy]ethoxy)acetyl](Val^8Glu^22 Arg^26Lys^34-GLP-1(7-37)) peptide (HVEGTFTSDVSSYLEEQAAREFIAWLVK([AEEA-AEEA-γGlu-C18 diacid])GRG) [M5]”: in data set [1], the “in vitro activities (comparison in words)” value is recorded as “comparable”. Further, the “Inhibition rate (blood glucose)” value in data set [2] (6 h) was 29.59%; in data set [2] (30 h) it was 39.47%; in data set [2] (54 h), 30.11%; in data set [2] (78 h), 27.07%; in data set [2] (102 h) it was 15.38%; in data set [3] (0.15 mg/kg s.c. single, 4 h), 29.59%. Further, the “Inhibition rate (blood glucose)” value in data set [3] (0.15 mg/kg s.c. single, 1 d) is 39.47%; in data set [3] (0.15 mg/kg s.c. single, 2 d), 30.11%; in data set [3] (0.15 mg/kg s.c. single, 3 d) it was 27.07%; in data set [3] (0.15 mg/kg s.c. single, 4 d), 15.38%; in data set [3] (0.15 mg/kg s.c. single, 5 d), 11.66%. Moreover, the “glucose-lowing effects (comparison in words, Tables 4 and 5)” value in data set [2] is reported as “comparable”. In addition, the G-AUC in data set [3] (0 h (before administration)) worked out at 16.3 ± 2.5; in data set [3] (0.15 mg/kg s.c. single, 4 h), 11.5 ± 1.0; in data set [3] (0.15 mg/kg s.c. single, 1 d), 9.9 ± 0.7; in data set [3] (0.15 mg/kg s.c. single, 2 d), 11.4 ± 1.3; in data set [3] (0.15 mg/kg s.c. single, 3 d), 11.9 ± 2.0; in data set [3] (0.15 mg/kg s.c. single, 4 d) it was 13.8 ± 1.9. The compound further displayed a G-AUC in data set [3] (0.15 mg/kg s.c. single, 5 d) of 14.4 ± 2.2.
With “N-ε^37-[2-(2-[2-(2-[2-(2-[4-(17-carboxyheptadecanoylamino)-4(s)-carboxybutyrylamino]ethoxy)ethoxy]acetylamino)ethoxy]ethoxy)acetyl](Val^8Glu^22Arg^26,34Lys^37-GLP-1 (7-37)) peptide (HVEGTFTSDVSSYLEEQAAREFIAWLVRGRK([AEEA-AEEA-γGlu-C18 diacid])) [M7]”, in data set [1], the “in vitro activities (comparison in words)” value is on record as “comparable”. In addition, the “Inhibition rate (blood glucose)” value in data set [2] (6 h) is given as 27.22%; in data set [2] (30 h), 38.82%; in data set [2] (54 h), 22.56%; in data set [2] (78 h) it was 22.48%; in data set [2] (102 h) it was 11.60%; in data set [3] (0.15 mg/kg s.c. single, 4 h), 27.22%. Moreover, the “Inhibition rate (blood glucose)” value stood at 38.82% in data set [3] (0.15 mg/kg s.c. single, 1 d); 22.56% in data set [3] (0.15 mg/kg s.c. single, 2 d); 22.48% in data set [3] (0.15 mg/kg s.c. single, 3 d); 11.60% in data set [3] (0.15 mg/kg s.c. single, 4 d); 6.76% in data set [3] (0.15 mg/kg s.c. single, 5 d). For the same compound, in data set [2], the “glucose-lowing effects (comparison in words, Tables 4 and 5)” value is listed as “comparable”. In addition, the G-AUC in data set [3] (0 h (before administration)) amounted to 16.3 ± 2.7; in data set [3] (0.15 mg/kg s.c. single, 4 h) it was 11.8 ± 1.4; in data set [3] (0.15 mg/kg s.c. single, 1 d), 10.0 ± 1.6; in data set [3] (0.15 mg/kg s.c. single, 2 d) it was 12.6 ± 1.5; in data set [3] (0.15 mg/kg s.c. single, 3 d) it was 12.6 ± 0.7; in data set [3] (0.15 mg/kg s.c. single, 4 d), 14.4 ± 1.1. In addition, in data set [3] (0.15 mg/kg s.c. single, 5 d), the G-AUC was determined as 15.2 ± 1.0.
`CC[C@H](C)[C@H](NC(=O)[C@H](Cc1ccccc1)NC(=O)[C@H](CCC(=O)O)NC(=O)[C@H](CCCCNC(=O)COCCOCCNC(=O)COCCOCCNC(=O)CC[C@H](NC(=O)CCCCCCCCCCCCCCCCC(=O)O)C(=O)O)NC(=O)[C@H](C)NC(=O)[C@H](C)NC(=O)[C@H](CCC(N)=O)NC(=O)CNC(=O)[C@H](CCC(=O)O)NC(=O)[C@H](CC(C)C)NC(=O)[C@H](Cc1ccc(O)cc1)NC(=O)[C@H](CO)NC(=O)[C@H](CO)NC(=O)[C@@H](NC(=O)[C@H](CC(=O)O)NC(=O)[C@H](CO)NC(=O)[C@@H](NC(=O)[C@H](Cc1ccccc1)NC(=O)[C@@H](NC(=O)CNC(=O)[C@H](CCC(=O)O)NC(=O)C(C)(C)NC(=O)[C@@H](N)Cc1cnc[nH]1)[C@@H](C)O)[C@@H](C)O)C(C)C)C(=O)N[C@@H](C)C(=O)N[C@@H](Cc1c[nH]c2ccccc12)C(=O)N[C@@H](CC(C)C)C(=O)N[C@H](C(=O)N[C@@H](CCCNC(=N)N)C(=O)NCC(=O)N[C@@H](CCCNC(=N)N)C(=O)NCC(=O)O)C(C)C` [Semaglutide, N-ε^26-[2-(2-[2-(2-[2-(2[4-(17-carboxyheptadecanoylamino)-4(s)-carboxybutyrylamino]ethoxy)ethoxy]acetylamino)ethoxy]ethoxy)acetyl][Aib^8, Arg^34]GLP-1-(7-37) peptide]: the “ability against trypsin degradation (in words)” value in data set [4] (pH4.0) is listed as “show the ability against trypsin degradation”. The “degradation rate by trypsin (in words)” value in data set [4] (pH6.8 and 8.0, n=4, FIG. 6) was “basically the same”.
